Assay results as given in ChEMBL document CHEMBL3286256 (J Med Chem, 2014).

Columns and labels:
[1] = target: T1, Retinal rod rhodopsin-sensitive cGMP 3',5'-cyclic phosphodiesterase subunit delta (Homo sapiens, UniProt O43924); assay: Binding affinity to His6-tagged PDE-delta (unknown origin) measured every 3 mins by fluorescence polarization assay
[2] = target: T1, Retinal rod rhodopsin-sensitive cGMP 3',5'-cyclic phosphodiesterase subunit delta
Description: Binding affinity to PDE-delta (unknown origin) assessed as shift in melting temperature

T1 sequence (O43924 whole entry): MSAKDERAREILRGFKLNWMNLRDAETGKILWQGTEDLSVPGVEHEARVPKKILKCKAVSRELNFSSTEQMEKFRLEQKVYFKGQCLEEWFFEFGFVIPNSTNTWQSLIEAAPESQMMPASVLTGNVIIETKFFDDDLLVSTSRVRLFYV

Kd [1] [nM] | ΔTm [2] [°C] | SMILES
> 1000 |  | C=CC(=O)N1CCC(c2nc3ccccc3n2Cc2ccccc2)CC1
> 2000 | 7.2 | CC(C)(C)OC(=O)N1CCC(C(COc2ccc(-c3nc4ccccc4n3Cc3ccccc3)cc2)n2c(-c3ccccc3)nc3ccccc32)CC1 (stereo not given)
1250 |  | CC(C)c1nc(N(C)S(C)(=O)=O)nc(-c2ccc(F)cc2)c1/C=C/[C@@H](O)C[C@@H](O)CC(=O)O [ROSUVASTATIN]
 | 20.5 | c1ccc(Cn2c(-c3ccc(OCC(C4CCNCC4)n4c(-c5ccccc5)nc5ccccc54)cc3)nc3ccccc32)cc1 (stereo not given)
